The subject of this test is P388 leukemia ip, CD2F1 mice, survival T/C. As to the kind of experiment: NCI In Vivo Anticancer Drug Screen. Data for tumor model P388 Leukemia (intraperitoneal) in CD2F1 (CDF1) mice. Conditions: endpoint: median survival time, higher = longer survival. A digest of the protocol: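 Mice carrying the transplanted tumor received test compound or vehicle. Survival was recorded in each group, and the value is the treated-group measurement divided by that of the vehicle-treated control group.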

Setting [1] is: dose: 3.13 mg/kg/injection, schedule: Q01DX009 (ip), vehicle: water.
Where [2] appears, read: dose: 6.25 mg/kg/injection, schedule: Q01DX009 (ip), vehicle: water.
Where [3] appears, read: dose: 100.0 mg/kg/injection, schedule: Q04DX003 (ip), vehicle: other.
[4] abbreviates: dose: 60.0 mg/kg/injection, schedule: Q01DX005 (ip), vehicle: saline with Tween-80.
Where [5] appears, read: dose: 120.0 mg/kg/injection, schedule: Q01DX005 (ip), vehicle: saline with Tween-80.
Setting [6] is: dose: 240.0 mg/kg/injection, schedule: Q01DX005 (ip), vehicle: saline with Tween-80.
The mark [7] stands for this setting: dose: 60.0 mg/kg/injection, schedule: Q01DX005 (ip), vehicle: Klucel (hydroxypropylcellulose) (HPC).
[8] abbreviates: dose: 120.0 mg/kg/injection, schedule: Q01DX005 (ip), vehicle: Klucel (hydroxypropylcellulose) (HPC).
Setting [9] is: dose: 240.0 mg/kg/injection, schedule: Q01DX005 (ip), vehicle: Klucel (hydroxypropylcellulose) (HPC).

The record followed here is PubChem BioAssay AID330 (DTP/NCI, 2004).

“And” between values parts separate entries of the source, which are not always exact repeats. Identical values can stand only once. Toxic doses and inconclusive results are not listed.

`CC1(C)C=Cc2c(ccc3c(=O)c(-c4ccc5c(c4)OCO5)coc23)O1`: the T/C (dose: 25.0 mg/kg/injection, schedule: Q04DX002 (ip), vehicle: saline with Tween-80) is 107 % of control; the T/C (dose: 50.0 mg/kg/injection, schedule: Q04DX002 (ip), vehicle: saline with Tween-80) was 101 % of control; the T/C (dose: 100.0 mg/kg/injection, schedule: Q04DX002 (ip), vehicle: saline with Tween-80) is 99 % of control and 108 % of control.
As to `Cn1nc(-c2cccnc2)[n+]([O-])c2c(=O)n(C)c(=O)nc1-2`, the T/C is 100 % of control (dose: 45.0 mg/kg/injection, schedule: Q01DX009 (ip), vehicle: saline with Tween-80); 109 % of control (dose: 90.0 mg/kg/injection, schedule: Q01DX009 (ip), vehicle: saline with Tween-80); 112 % of control (dose: 180.0 mg/kg/injection, schedule: Q01DX009 (ip), vehicle: saline with Tween-80).
In the case of `CCCCCC(=O)SCC(=O)OCC(=O)[C@]1(O)Cc2c(O)c3c(c(O)c2[C@@H](OC2CC(N)C(O)C(C)O2)C1)C(=O)c1c(OC)cccc1C3=O` (some centres not stated), the T/C by setting is: (dose: 0.78 mg/kg/injection, schedule: Q01DX009 (ip), vehicle: water) 169 % of control; (dose: 1.56 mg/kg/injection, schedule: Q01DX009 (ip), vehicle: water) 174 % of control and 179 % of control; under setting [1], 194 % of control and 209 % of control; under setting [2], 104 % of control.
As to `Nc1cc2c(c[n+](CCC[n+]3cc4c5ccccc5c(N)cc4c4ccccc43)c3ccccc23)c2ccccc12`, the T/C runs as follows: (dose: 3.13 mg/kg/injection, schedule: Q04DX003 (ip), vehicle: other) 94 % of control; (dose: 6.25 mg/kg/injection, schedule: Q04DX003 (ip), vehicle: other) 102 % of control; (dose: 12.5 mg/kg/injection, schedule: Q04DX003 (ip), vehicle: other) 93 % of control; (dose: 25.0 mg/kg/injection, schedule: Q04DX003 (ip), vehicle: other) 92 % of control; (dose: 50.0 mg/kg/injection, schedule: Q04DX003 (ip), vehicle: other) 93 % of control; under setting [3], 86 % of control.
For `COc1cc2c(cc1OC)/C(=N/N)CCC2`, the T/C under setting [1] was 100 % of control; the T/C under setting [2] is 100 % of control; the T/C (dose: 12.5 mg/kg/injection, schedule: Q01DX009 (ip), vehicle: water) was 95 % of control; the T/C (dose: 25.0 mg/kg/injection, schedule: Q01DX009 (ip), vehicle: water) is 91 % of control; the T/C (dose: 50.0 mg/kg/injection, schedule: Q01DX009 (ip), vehicle: water) was 91 % of control.
For the molecule `C=CCSC(=NC#N)SC`, the T/C is, setting by setting: (dose: 3.12 mg/kg/injection, schedule: Q01DX005 (ip), vehicle: Klucel (hydroxypropylcellulose) (HPC)) 101 % of control; (dose: 6.25 mg/kg/injection, schedule: Q01DX005 (ip), vehicle: Klucel (hydroxypropylcellulose) (HPC)) 101 % of control; (dose: 12.5 mg/kg/injection, schedule: Q01DX005 (ip), vehicle: Klucel (hydroxypropylcellulose) (HPC)) 107 % of control.
For `CCOC(=O)c1ccc(N=Nc2c(O)c(C(=O)OCC)c(O)c3ccccc23)cc1O`, the T/C (dose: 100.0 mg/kg/injection, schedule: Q01DX001 (ip), vehicle: distilled water + alcohol) was 91 % of control; the T/C (dose: 200.0 mg/kg/injection, schedule: Q01DX001 (ip), vehicle: distilled water + alcohol) was 86 % of control; the T/C (dose: 400.0 mg/kg/injection, schedule: Q01DX001 (ip), vehicle: distilled water + alcohol) is 86 % of control.
Regarding `COc1cc2c(cc1OC)C1CC3(CCN1CC2)CC(=O)OC3=O` (configuration not stated), the T/C reads like this: (dose: 50.0 mg/kg/injection, schedule: Q01DX005 (ip), vehicle: DMSO) 108 % of control; (dose: 100.0 mg/kg/injection, schedule: Q01DX005 (ip), vehicle: DMSO) 120 % of control; (dose: 200.0 mg/kg/injection, schedule: Q01DX005 (ip), vehicle: DMSO) 119 % of control.
With `CC(=O)Nc1ccc(S(=O)(=O)N/N=C/c2cc([N+](=O)[O-])cc(I)c2O)cc1`, the T/C runs as follows: under setting [4], 93 % of control; under setting [5], 97 % of control; under setting [6], 103 % of control.
Take `CNc1nc2c(C)ccc3[nH]c(N(C)C)nc3c-2n1`: the T/C was 100 % of control (dose: 25.0 mg/kg/injection, schedule: Q01DX005 (ip), vehicle: Klucel (hydroxypropylcellulose) (HPC)); 99 % of control (dose: 50.0 mg/kg/injection, schedule: Q01DX005 (ip), vehicle: Klucel (hydroxypropylcellulose) (HPC)); 91 % of control (dose: 100.0 mg/kg/injection, schedule: Q01DX005 (ip), vehicle: Klucel (hydroxypropylcellulose) (HPC)).
On to `CC1OC(=O)c2cc3ccccc3nc21` (configuration not stated), for which the T/C under setting [4] was 93 % of control, the T/C under setting [5] was 100 % of control and the T/C under setting [6] was 93 % of control.
On to `C=CC[P+](CC)(c1ccccc1)c1ccccc1`, for which the T/C is, setting by setting: (dose: 0.78 mg/kg/injection, schedule: Q01DX009 (ip), vehicle: saline) 95 % of control; (dose: 1.56 mg/kg/injection, schedule: Q01DX009 (ip), vehicle: saline) 88 % of control; (dose: 3.13 mg/kg/injection, schedule: Q01DX009 (ip), vehicle: saline) 93 % of control.
On to `O/N=C1/CCN2CCCc3cccc1c32`, for which the T/C was 95 % of control (dose: 132.0 mg/kg/injection, schedule: Q01DX001 (ip), vehicle: saline with Tween-80); 100 % of control (dose: 200.0 mg/kg/injection, schedule: Q01DX001 (ip), vehicle: saline with Tween-80); 100 % of control (dose: 300.0 mg/kg/injection, schedule: Q01DX001 (ip), vehicle: saline with Tween-80).
For `O=C(O)CCN1CCCc2ccccc21`, the T/C reads like this: under setting [3], 100 % of control; (dose: 200.0 mg/kg/injection, schedule: Q04DX003 (ip), vehicle: other) 100 % of control; (dose: 400.0 mg/kg/injection, schedule: Q04DX003 (ip), vehicle: other) 109 % of control.
In the case of `CC1=C(C)C2C(=O)NC(=O)NC12` (configuration not stated), the T/C reads like this: (dose: 100.0 mg/kg/injection, schedule: Q01DX001 (ip), vehicle: Klucel (hydroxypropylcellulose) (HPC)) 100 % of control; (dose: 200.0 mg/kg/injection, schedule: Q01DX001 (ip), vehicle: Klucel (hydroxypropylcellulose) (HPC)) 91 % of control.
As to `CSc1c2c([nH]c(=O)c1C#N)-c1ccccc1CC2`, the T/C by setting is: (dose: 30.0 mg/kg/injection, schedule: Q01DX005 (ip), vehicle: saline with Tween-80) 89 % of control; under setting [4], 91 % of control; under setting [5], 95 % of control and 96 % of control; under setting [6], 88 % of control.
As for `COC1C(O)C(CO)OC1n1ccc(NC(=O)c2ccccc2)nc1=O` (configuration not stated), the T/C is, setting by setting: under setting [7], 98 % of control and 93 % of control; under setting [8], 94 % of control; under setting [9], 91 % of control and 93 % of control.
As to `COc1ccc(-c2csc(C)n2)cc1OC`, the T/C is 106 % of control (dose: 100.0 mg/kg/injection, schedule: Q04DX003 (ip), vehicle: Klucel (hydroxypropylcellulose) (HPC)); 106 % of control (dose: 200.0 mg/kg/injection, schedule: Q04DX003 (ip), vehicle: Klucel (hydroxypropylcellulose) (HPC)); 103 % of control (dose: 400.0 mg/kg/injection, schedule: Q04DX003 (ip), vehicle: Klucel (hydroxypropylcellulose) (HPC)).
`CCN(CC)CCSc1cc(C)c2ccc(N)nc2n1`: the T/C is, setting by setting: under setting [7], 100 % of control; under setting [8], 106 % of control.
Consider `N#CCC(=O)CCCCCCCO`, for which the T/C was 93 % of control (dose: 100.0 mg/kg/injection, schedule: Q01DX001 (ip), vehicle: saline) and 92 % of control (dose: 400.0 mg/kg/injection, schedule: Q01DX001 (ip), vehicle: saline).
Turning to `Clc1ccc(-c2cc(-c3cc(-c4ccc(Cl)cc4Cl)n[nH]3)[nH]n2)c(Cl)c1`, the T/C reads like this: (dose: 60.0 mg/kg/injection, schedule: Q01DX005 (ip), vehicle: Klucel + Tween-80) 100 % of control; (dose: 120.0 mg/kg/injection, schedule: Q01DX005 (ip), vehicle: Klucel + Tween-80) 98 % of control; (dose: 240.0 mg/kg/injection, schedule: Q01DX005 (ip), vehicle: Klucel + Tween-80) 90 % of control.
For `Nc1nc(-c2ccc3ccccc3c2)cc(-c2cc(-c3ccc4ccccc4c3)nc(N)n2)n1`, the T/C by setting is: under setting [7], 96 % of control; under setting [8], 93 % of control; under setting [9], 91 % of control.
As to `O=P(c1ccccc1)(c1ccccc1)c1ccccc1.O=P(c1ccccc1)(c1ccccc1)c1ccccc1.O=P(c1ccccc1)(c1ccccc1)c1ccccc1.O=P(c1ccccc1)(c1ccccc1)c1ccccc1.[Cr+3].[O-][Cl+3]([O-])([O-])O`, the T/C by setting is: (dose: 100.0 mg/kg/injection, schedule: Q04DX003 (ip), vehicle: saline + Tween-80 + alcohol) 101 % of control; (dose: 200.0 mg/kg/injection, schedule: Q04DX003 (ip), vehicle: saline + Tween-80 + alcohol) 100 % of control.
